Results as given in patent US6852685B1, “Use of colostrinin, constituent peptides thereof, and analogs thereof to promote neuronal cell differentiation” (Board of Regents, The University of Texas System, priority 1999, dated 2005).
Entries after “also recorded” stand apart in the source; their conditions may differ.

System: medullary pheochromocytoma (PC12) cells
Assay: Effect on morphology (differentiation) of PC12 cells
Assay type: cell-based
Conditions: for 1% FBS (cell differentiation) / 10% FBS (cell differentiation): six days after treatment; for Cell morphology: morphologies seen after treatment (list per substance, not tied to one concentration)
Description: Cells: PC12 cell line derived from medullary pheochromocytoma cells were used to undertake studies described bellow. PC 12 cells were obtained from the American Type Culture Collection and maintained in RPMI-1640 supplemented with 10% fetal bovine serum (HYCLONE Inc), penicillin (100 U/ml) and streptomycin (100 μg/ml).
Methods: To evaluate the effect of colostrum, colostrinin and its component peptides on cell differentiation 3×10^4 logarithmically replicating (70% confluence) PC12 cells were seeded in 24× well plates and cells were allowed to adhere and grow for 24 hours. Serum containing media were aspirated and replaced for serum-free RPMI containing appropriate amount of antibiotics. In four parallel, increasing concentrations (0.1, 1, 10 and 100 μg per ml) of colostrum, colostrinin and its component peptides were added directly into the media and incubated at 37° C. As a positive control, nerve growth factor (NGF) 7S (Gibco-BRL) was used at 100 ng per ml concentration (Chao, Cell, 69, 995-997 (1992); and Marshall et al., Cell 80, 179-185 (1995)). Phorbol 12-myristate 13-acetate (TPA: 10 ng per mil) was used as a negative control. Eight hours later the media were changed and RPMI-1640 was added containing 1% or 10% fetal bovine serum. The cultures were microscopically investigated 2nd, 4th and 6th days after treatment. Six days after treatment cells were fixed with paraformaldehyde (4%) and stained with 0.01% crystal violet solution. Excess of dyes were removed by ethanol washing. The final evaluation took place using a microscopy (Axiophot2 Zeiss Inc., Germany).

Compound	1% FBS (cell differentiation) (0.1 μg/ml)	1% FBS (cell differentiation) (1.0 μg/ml)	1% FBS (cell differentiation) (10 μg/ml)	1% FBS (cell differentiation) (100 μg/ml)	10% FBS (cell differentiation) (1.0 μg/ml)	10% FBS (cell differentiation) (10 μg/ml)	10% FBS (cell differentiation) (100 μg/ml)	Cell morphology	10% FBS (cell differentiation) (0.1 μg/ml)
LQTPQPLLQVMMEPQGD [SEQ ID NO:2]	− (− = ≦0.01% (back-ground))	− (− = ≦0.01% (back-ground))	+ (+ = 1%)	− (− = ≦0.01% (back-ground))	++ (++ = 1-5%)	++ (++ = 1-5%)	+ (+ = 1%)	fibroblast-like; also recorded: neuron-like	–
MQPPPLP [SEQ ID NO:1]	− (− = ≦0.01% (back-ground))	− (− = ≦0.01% (back-ground))	− (− = ≦0.01% (back-ground))	− (− = ≦0.01% (back-ground))	+ (+ = 1%)	++ (++ = 1-5%)	–	epitheloid; also recorded: neuron-like	–
LKPFPKLKVEVFPFP [SEQ ID NO:8]	− (− = ≦0.01% (back-ground))	− (− = ≦0.01% (back-ground))	− (− = ≦0.01% (back-ground))	− (− = ≦0.01% (back-ground))	++ (++ = 1-5%)	+ (+ = 1%)	− (− = ≦0.01% (back-ground))	fibroblast-like; also recorded: neuron-like	− (− = ≦0.01% (back-ground))
MPQNFYKLPQM [SEQ ID NO:6]	− (− = ≦0.01% (back-ground))	− (− = ≦0.01% (back-ground))	− (− = ≦0.01% (back-ground))	− (− = ≦0.01% (back-ground))	–	+ (+ = 1%)	+ (+ = 1%)	fibroblast-like; also recorded: epitheloid	− (− = ≦0.01% (back-ground))
VESYVPLFP [SEQ ID NO:31]	–	− (− = ≦0.01% (back-ground))	− (− = ≦0.01% (back-ground))	–	–	–	–	fibroblast-like; also recorded: neuron-like	− (− = ≦0.01% (back-ground))
CCCCCCCCCCCCCC(=O)O[C@@H]1[C@@H](C)[C@@]2(O)[C@@H](C=C(CO)C[C@]3(O)C(=O)C(C)=C[C@@H]23)[C@@H]2C(C)(C)[C@]12OC(C)=O [TPA, Phorbol 12-myristate 13-acetate, reference compound]	–	–	–	–	–	–	–	rounded	–
DQPPDVEKPDLQPFQVQS [SEQ ID NO:3]	− (− = ≦0.01% (back-ground))	− (− = ≦0.01% (back-ground))	− (− = ≦0.01% (back-ground))	− (− = ≦0.01% (back-ground))	–	+ (+ = 1%)	+ (+ = 1%)	fibroblast-like; also recorded: neuron-like	− (− = ≦0.01% (back-ground))
VLEMKFPPPPQETVT [SEQ ID NO:7]	− (− = ≦0.01% (back-ground))	− (− = ≦0.01% (back-ground))	− (− = ≦0.01% (back-ground))	− (− = ≦0.01% (back-ground))	+ (+ = 1%)	+ (+ = 1%)	–	fibroblast-like; also recorded: neuron-like	− (− = ≦0.01% (back-ground))
LFFFLPVVNVLP [SEQ ID NO:4]	− (− = ≦0.01% (back-ground))	− (− = ≦0.01% (back-ground))	− (− = ≦0.01% (back-ground))	− (− = ≦0.01% (back-ground))	+ (+ = 1%)	++ (++ = 1-5%)	++ (++ = 1-5%)	fibroblast-like; also recorded: epitheloid; also recorded: neuron-like	− (− = ≦0.01% (back-ground))
DLEMPVLPVEPFPFV [SEQ ID NO:5]	− (− = ≦0.01% (back-ground))	− (− = ≦0.01% (back-ground))	− (− = ≦0.01% (back-ground))	− (− = ≦0.01% (back-ground))	− (− = ≦0.01% (back-ground))	–	+ (+ = 1%)	fibroblast-like; also recorded: epitheloid; also recorded: neuron-like	− (− = ≦0.01% (back-ground))
